{"source": "patent US20040248937A1", "about": "“Substituted phenylalkanoic acids for the treatment of diabetes” (The Institute for Pharmaceutical Discovery LLC, priority 2003, published 2004)", "system": "insulin resistant rats", "assay": "Euglycemic insulin clamp in High Fat Diet fed insulin resistant rats after a single oral dose", "type": "in vivo, Male Wistar rats", "conditions": "for EGP (endogenous glucose production) / GIR (glucose infusion rate) / GU (glucose utilization): 4 hrs before clamp, mean ± sem", "procedure": "Male Wistar rats were fed a High Fat Diet for at least 4 weeks. Jugular vein and carotid artery cannulations were performed one week prior to the clamp experiment. Test compound (Compound 15) is administered p.o. 4 hrs before the clamp and labeled 3-3H-glucose is infused 1 hr prior to calculated endogenous glucose production (EGP). Insulin is infused at a rate of 0.75 U/kg/hr raising plasma insulin levels to […]. To maintain euglycemia (80 mg/dl), unlabeled glucose is infused at a variable rate and adjusted every 10 minutes."}
{"smiles": "CCc1ccc(-c2sc(NC(=O)c3ccc(S(=O)(=O)N[C@@H](Cc4ccccc4)C(=O)O)cc3)nc2-c2ccc(Cl)cc2)cc1", "note": "[Compound 15, N-{[4-({[4-(4-chlorophenyl)-5-(4-ethylphenyl)-1,3-thiazol-2-yl]amino}carbonyl)phenyl]sulfonyl}phenylalanine]", "values": [{"measurement": "EGP (endogenous glucose production)", "setting": "10 mg/kg single oral dose", "value": "1.4 ± 1.8", "unit": "mg/kg/min"}, {"measurement": "GIR (glucose infusion rate)", "setting": "10 mg/kg single oral dose", "value": "29.6 ± 5.0", "unit": "mg/kg/min"}, {"measurement": "GU (glucose utilization)", "setting": "10 mg/kg single oral dose", "value": "28.3 ± 6.6", "unit": "mg/kg/min"}, {"measurement": "effect on endogenous glucose production (EGP)", "setting": "30 mg/kg p.o., result in words", "value": "enhanced suppression"}, {"measurement": "effect on glucose infusion rate (GIR)", "setting": "30 mg/kg p.o., result in words", "value": "significantly increased"}, {"measurement": "effect on glucose utilization (GU)", "setting": "30 mg/kg p.o., result in words", "value": "augmented stimulation"}, {"measurement": "EGP (endogenous glucose production)", "setting": "30 mg/kg single oral dose", "value": "0.16 ± 0.5", "unit": "mg/kg/min"}, {"measurement": "GIR (glucose infusion rate)", "setting": "30 mg/kg single oral dose", "value": "30.8 ± 2.2", "unit": "mg/kg/min"}, {"measurement": "GU (glucose utilization)", "setting": "30 mg/kg single oral dose", "value": "30.7 ± 2.00", "unit": "mg/kg/min"}, {"measurement": "EGP (endogenous glucose production)", "setting": "60 mg/kg single oral dose", "value": "0.77 ± 0.4", "unit": "mg/kg/min"}, {"measurement": "GIR (glucose infusion rate)", "setting": "60 mg/kg single oral dose", "value": "38.0 ± 2.2", "unit": "mg/kg/min"}, {"measurement": "GU (glucose utilization)", "setting": "60 mg/kg single oral dose", "value": "37.3 ± 2.3", "unit": "mg/kg/min"}]}
